In brackets after ≈: the same amount, converted by molar mass. Like-named read-outs stand apart in the source and are kept apart here.
Key:
[1] = Cell proliferation assay (HepG2 cells); settings: human
Method: (§1) Cell proliferation assay (HepG2 cells)
(§2) The assay was performed by the company Eurofins (Taiwan). Cytotoxicity was representatively
(§3) according to a protocol by Ansar et al.27 This is in line with previously published cytotoxicity data on
(§4) GI = growth inhibition; TGI = total growth inhibition; LC = lethal concentration

[2] = tested on: HepG2 cells; test: Cell proliferation assay (HepG2 cells); settings: HepG2 cells
Method: as §1, §2, §3, §4

[3] = tested on: E. coli DSM 1116; test: MIC determination (broth microdilution); assay type: cell-based, Escherichia coli; settings: Escherichia coli, DSM1116
Method: (§5) 1.1.1 In vitro experiments
(§6) Determination of Minimal inhibitory concentrations (MIC)
(§7) Approved Standard M07-A9.1
(§8) CFU mL-1. […] Albicidin and […]
(§9) and serially diluted in DMSO (100%). […]
(§10) in 0.1 N HCL, respectively.
(§11) One row of each well plate served as a […]
(§12) sterility control (only MHB II-media). […]
(§13) adding 5 µL DMSO to several wells. […]
(§14) for growth inhibition by naked eye.
(§15) Microorganisms and Cell Cultures (DSMZ): […]

[4] = tested on: S. Typhimurium TA100; test: MIC determination (broth microdilution); assay type: cell-based, Salmonella typhimurium; settings: Salmonella enterica; S. Typhimurium TA100; read-out: MIC
Method: as §5, §6, §7, §8, §9, §10, §11, §12, §13, §14, §15

[5] = tested on: B. subtilis DSM 10; test: MIC determination (broth microdilution); assay type: cell-based; settings: Bacillus subtilis, DSM10; B. subtilis DSM 10; read-out: MIC
Method: as §5, §6, §7, §8, §9, §10, §11, §12, §13, §14, §15

[6] = tested on: E. coli BW25113; test: MIC determination (broth microdilution); assay type: cell-based; settings: Escherichia coli
Method: as §5, §6, §7, §8, §9, §10, §11, §12, §13, §14, §15

[7] = tested on: M. luteus DSM1790; test: MIC determination (broth microdilution); assay type: cell-based, Micrococcus luteus; settings: Micrococcus luteus; M. luteus DSM1790; read-out: MIC
Method: as §5, §6, §7, §8, §9, §10, §11, §12, §13, §14, §15

[8] = tested on: M. phlei DSM 750; test: MIC determination (broth microdilution); assay type: cell-based, Mycobacterium phlei; settings: Mycolicibacterium phlei, DSM750; M. phlei DSM 750; read-out: MIC
Method: as §5, §6, §7, §8, §9, §10, §11, §12, §13, §14

[9] = tested on: E. coli DSM 1116 + 50% Human Serum; test: MIC determination in presence of 50% human serum; assay type: cell-based; settings: Escherichia coli, DSM1116; E. coli DSM 1116 + 50% Human Serum; read-out: MIC
From the text: This investigation was completed by assessment of the antibacterial activity in presence of human plasma (50%) (Table 1), since high plasma protein binding can severely impair antibacterial activity and thus efficacy.
as §5, §6, §7, §8, §9, §10, §11, §12, §13, §14, §15

[10] = target: T1, E. coli DNA gyrase (Escherichia coli, UniProt P0AES4+P0AES6); test: E. coli gyrase supercoiling inhibition assay; assay type: biochemical; parameters: key: ↑: for stronger inhibition; ≈: for equal inhibition; ↓: for diminished inhibition compared to albicidin 1; settings: constant concentration of 45 nM, compared to albicidin 1
T1 construct: purchased inspiralis Limited, Norwich, UK
Method: Escherichia coli Gyrase Supercoiling Inhibition Assay
loaded on an agarose gel.
2-15. […] Addition of DNA
All derivatives were tested at a concentration of […]

[11] = tested on: Gram-negative strains; test: MIC, primary panel; assay type: cell-based; settings: Salmonella enterica, TYPHIMURIUM
Method: as §5, §6, §7, §8, §9, §10, §11, §12, §13, §14
(§16) Microorganisms and Cell Cultures (DSMZ):
Mycobacterium phlei DSM 750
Salmonella typhimurium TA100 was kindly provided by Prof. Dr. Vera Meyer (Technische Universität […]
Brötz-Oesterheldt (Tübingen, Germany)/ Prof. Dr. Heisig (Hamburg, Germany)2 Escherichia coli WT (GK571)
Escherichia coli WT-3-1 (GK796) [gyrA (S83L, D87G)]
Escherichia coli MI (GK572) [gyrA (S83L)] […]
or by Prof. Dr. Werner (Robert-Koch-Institut, Wernigerode, Germany): […]

[12] = tested on: Gram-positive strains; test: MIC, primary panel; assay type: cell-based
Method: as §5, §6, §7, §8, §9, §10, §11, §12, §13, §14, §16
Mycobacterium phlei DSM 750 […]
Dr. Werner (Robert-Koch-Institut, Wernigerode, Germany): […]

| SMILES | CC50 [1] [nM] | GI50 [1] [nM] | TGI (total growth inhibition) [2] [nM] | MIC ([3]; E. coli DSM 1116, read-out: MIC) [µg/mL] | MIC [4] [µg/mL] | MIC [5] [µg/mL] | MIC [6] [µg/mL] | MIC [7] [µg/mL] | MIC [8] [µg/mL] | MIC [9] [µg/mL] | E. coli gyrase inhibition [10] | MIC [3] [µg/mL] | MIC [11] [µg/mL] | MIC [12] [µg/mL] |
| --- | --- | --- | --- | --- | --- | --- | --- | --- | --- | --- | --- | --- | --- | --- |
| CN[C@@H]1C[C@H]2O[C@@](C)([C@@H]1OC)n1c3ccccc3c3c4c(c5c6ccccc6n2c5c31)C(=O)NC4 [Staurosporine, reference compound] | 5810 | 5.23 | < 140 |  |  |  |  |  |  |  |  |  |  |  |
| COc1c(NC(=O)c2ccc(NC(=O)c3ccc(NC(=O)[C@H](Cc4c[nH]nn4)NC(=O)c4ccc(NC(=O)/C(C)=C/c5ccc(O)cc5)cn4)cc3)c(OC)c2O)ccc(C(=O)O)c1O [Compound 5] |  |  |  | 0.031 (≈ 0.035 µM) | 0.031 (≈ 0.035 µM) | 0.25 (≈ 0.282 µM) | 0.031 (≈ 0.035 µM) | 0.5 (≈ 0.564 µM) | 4 (≈ 4.52 µM) | 2 | ↑ |  |  |  |
| COc1c(NC(=O)c2ccc(NC(=O)[C@H](Cc3c[nH]nn3)NC(=O)c3ccc(NC(=O)/C(C)=C/c4ccc(O)cc4)cc3)cc2)ccc(C(=O)Nc2ccc(C(=O)O)cn2)c1O [Compound 13] |  |  |  |  | 0.016 (≈ 0.0191 µM) | 4 (≈ 4.76 µM) | 0.125 (≈ 0.149 µM) | 4 (≈ 4.76 µM) | 4 (≈ 4.76 µM) | 8 | ≈ | 0.125 (≈ 0.149 µM) | 0.125 (≈ 0.149 µM) | 4 (≈ 4.76 µM) |
